Test results published in patent US10703698B2, “Compounds which activate estrogen receptors and compositions and methods of using the same” (The Board of Trustees of the University of Illinois, priority 2016, dated 2020).

Legend:
PgR gene = assay: PgR (genomic gene) mRNA expression, qPCR; settings: MCF-7 cells; 1 μM PaPE or 10 nM E2 for 4 h where stated; versus vehicle or E2
Source text: (§2) Quantitation of signal intensities is shown in panel at the right.

LRRC54 gene = assay: LRRC54 (non-genomic gene) mRNA expression, qPCR; settings: MCF-7 cells; 1 μM PaPE or 10 nM E2 for 4 h where stated; versus vehicle, E2 or compound 2
Source text: as §2

[1] = target: T1, purified full-length human ERα (Homo sapiens, UniProt P03372); assay: competitive radiometric binding assay, relative binding affinity (RBA); settings: relative to estradiol = 100
T1 construct: using purified full-length human ERα and ERβ
T1 sequence (P03372 1-595): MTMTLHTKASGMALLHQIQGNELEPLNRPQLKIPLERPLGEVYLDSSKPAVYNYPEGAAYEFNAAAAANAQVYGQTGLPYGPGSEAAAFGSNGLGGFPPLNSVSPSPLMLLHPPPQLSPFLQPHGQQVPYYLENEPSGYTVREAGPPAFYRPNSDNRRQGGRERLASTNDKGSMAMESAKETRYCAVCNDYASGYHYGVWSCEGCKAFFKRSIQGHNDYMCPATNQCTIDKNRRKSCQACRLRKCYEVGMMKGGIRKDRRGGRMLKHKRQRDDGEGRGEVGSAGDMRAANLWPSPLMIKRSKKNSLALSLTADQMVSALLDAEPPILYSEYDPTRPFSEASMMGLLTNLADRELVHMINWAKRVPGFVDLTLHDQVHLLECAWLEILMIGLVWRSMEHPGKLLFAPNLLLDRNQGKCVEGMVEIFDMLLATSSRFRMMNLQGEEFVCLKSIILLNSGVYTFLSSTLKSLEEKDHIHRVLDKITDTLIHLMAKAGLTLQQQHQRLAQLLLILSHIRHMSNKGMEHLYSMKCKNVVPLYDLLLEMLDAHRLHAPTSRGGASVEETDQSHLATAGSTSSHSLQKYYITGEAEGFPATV
Source text: (§1) FIG. 1. […] […]

[2] = target: T2, purified full-length human ERβ (Homo sapiens, UniProt Q92731); assay: as above; settings: relative to estradiol = 100
T2 construct: using purified full-length human ERα and ERβ
Source text: as §1

T2 sequence (Q92731 whole entry): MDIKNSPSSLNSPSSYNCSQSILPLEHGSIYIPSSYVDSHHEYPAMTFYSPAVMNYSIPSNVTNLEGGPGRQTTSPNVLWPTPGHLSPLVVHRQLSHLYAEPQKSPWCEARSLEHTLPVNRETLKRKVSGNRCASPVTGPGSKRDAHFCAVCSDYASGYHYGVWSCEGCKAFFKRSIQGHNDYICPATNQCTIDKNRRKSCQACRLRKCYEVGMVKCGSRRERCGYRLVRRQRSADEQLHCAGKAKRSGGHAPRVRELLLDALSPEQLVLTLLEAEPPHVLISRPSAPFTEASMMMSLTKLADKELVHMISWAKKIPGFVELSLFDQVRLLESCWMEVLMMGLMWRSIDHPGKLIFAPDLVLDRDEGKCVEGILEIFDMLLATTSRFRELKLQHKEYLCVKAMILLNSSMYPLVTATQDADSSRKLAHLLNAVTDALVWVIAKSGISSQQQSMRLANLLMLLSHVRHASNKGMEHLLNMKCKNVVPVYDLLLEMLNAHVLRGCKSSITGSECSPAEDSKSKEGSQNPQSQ

ERα RBA (relative binding affinity) [1]	ERβ RBA (relative binding affinity) [2]	Compound	PgR (genomic gene) mRNA expression, in words (PgR gene)	LRRC54 (non-genomic gene) mRNA expression, in words (LRRC54 gene)
–	–	Cc1cc(-c2ccc3c(c2)C=CC3=O)cc(C)c1O [Compound 18]	increases expression of both the non-genomic and genomic genes	increases expression of both the non-genomic and genomic genes
–	–	COC1CCc2cc(-c3cc(C)c(O)c(C)c3)ccc21 (stereo not shown) [Compound 22, 4-(1-methoxy-2,3-dihydro-1H-inden-5-yl)-2,6-dimethylphenol]	stimulation of both genomic and nongenomic gene expression is lost	stimulation of both genomic and nongenomic gene expression is lost
–	–	Cc1cc(-c2ccc3c(c2)CC=C3)cc(C)c1O [Compound 14, 4-(1H-inden-6-yl)-2,6-dimethylphenol]	strongly stimulate the genomic gene PgR	–
–	–	Cc1cc(-c2ccc3c(c2)CC(Br)C3O)cc(C)c1O (stereo not shown) [Compound 51, 2-bromo-5-(4-hydroxy-3,5-dimethylphenyl)-2,3-dihydro-1H-inden-1-ol]	stimulate both non-genomic LRRC54 and genomic PgR gene expression close to the level that of E2	stimulate both non-genomic LRRC54 and genomic PgR gene expression close to the level that of E2
–	–	COC1CC(=O)c2ccc(-c3cc(C)c(O)c(C)c3)cc21 (stereo not shown) [Compound 29]	did not activate PgR above that of vehicle (veh.)	–
–	–	COc1c(C)cc(-c2ccc3c(c2)CCC3O)cc1C (stereo not shown) [Compound 5, 5-(4-methoxy-3,5-dimethylphenyl)-2,3-dihydro-1H-inden-1-ol]	–	marked loss of this non-genomic activity
0.003 ± 0	0.009 ± 0	Cc1cc(-c2ccc(CO)c(F)c2)cc(C)c1O [Compound 25, 3′-fluoro-4′-(hydroxvmethyl)-3,5-dimethyl-[1,1′-biphenyl]-4-ol]	–	–
0.003 ± 0.001	0.002 ± 0.001	Cc1cc(-c2ccc3c(c2)CCC3C#N)cc(C)c1O (stereo not shown) [Compound 9, 5-(4-hydroxy-3,5-dimethylphenyl)-2,3-dihydro-1H-indene-1-carbonitrile]	–	no non-genomic activity
–	–	Cc1cc(-c2ccc(CCCO)cc2)cc(C)c1O [Compound 48, 4′-(3-hydroxypropyl)-3,5-dimethyl-[1,1′-biphenyl]-4-ol]	stimulate expression of genomic PgR genes well	–
–	–	Cc1cc(-c2cccc(CC(=O)O)c2)cc(C)c1O [Compound 49]	behaves like vehicle	behaves like vehicle
0.011 ± 0.003	0.755 ± 0.20	Cc1cc(-c2ccc(O)cc2)cc(C)c1O [Compound 35]	–	principally loss of LRRC54 gene expression
–	–	Cc1cc(-c2ccc3c(c2)CC(F)C3O)cc(C)c1O (stereo not shown) [Compound 50, 2-fluoro-5-(4-hydroxy-3,5-dimethylphenyl)-2,3-dihydro-1H-inden-1-ol]	stimulate both non-genomic LRRC54 and genomic PgR gene expression close to the level that of E2	stimulate both non-genomic LRRC54 and genomic PgR gene expression close to the level that of E2
–	–	OCc1cc(-c2ccccc2)ccc1O [Compound 61, 4-Hydroxy-3-hydroxymethyl-biphenyl]	not at all	a little better than vehicle (Veh.)
–	–	Cc1cc(C(=C2CCCCC2)c2ccc(Br)cc2)cc(C)c1O [Compound 67]	stimulate PgR gene selectively	–
–	–	COCc1cc(-c2ccc3c(c2)CCC3O)cc(C)c1O (stereo not shown) [Compound 54, 5-(4-hydroxy-3-methyl-5-methoxymethylphenyl)-2,3-dihydro-1H-inden-1-ol]	little expression of both genes	little expression of both genes
–	–	Cc1cc(-c2ccc(O)c(CCO)c2)cc(C)c1O [Compound 69, 3′-(2-hydroxyethyl)-3,5-dimethyl-[1,1′-biphenyl]-4,4′-diol]	–	does not improve the non-genomic LRRC54 gene response
–	–	Cc1cc(-c2ccc3cc(O)ccc3c2)cc(C)c1O [Compound 53]	gene expression pattern equivalent to that of estradiol (E2)	gene expression pattern equivalent to that of estradiol (E2)

ERα RBA (relative binding affinity) [1]	ERβ RBA (relative binding affinity) [2]	Compound	PgR (genomic gene) mRNA expression, in words (PgR gene)	LRRC54 (non-genomic gene) mRNA expression, in words (LRRC54 gene)
0.008 ± 0.002	0.013 ± 0.002	Cc1cc(-c2ccc(CO)cc2C(F)(F)F)cc(C)c1O [Compound 28]	–	–
0.001	0.002	Cc1cc(-c2ccc(CCO)cc2)cc(C)c1O [Compound 45, 4′-(2-hydroxyethyl)-3,5-dimethyl-[1,1′-biphenyl]-4-ol]	–	preferentially stimulate LRRC54 better than E2
–	–	Cc1cc(-c2cc(C)c(O)c(C)c2)cc(C)c1O [Compound 65, 4,4′-Dihydroxy-3,3′,5,5′-tetramethylbiphenyl]	equivalent to that of vehicle (Veh.)	greatly suppresses LRRC54 gene expression
–	–	Cc1cc(C(=C2C3CC4CC(C3)CC2C4)c2ccc(Br)cc2)cc(C)c1O [Compound 66]	stimulate PgR gene selectively	–
–	–	Cc1cc(-c2cc(C)c(O)c(CO)c2)cc(C)c1O [Compound 68, 3-(Hydroxymethyl)-3′,5,5′-trimethyl-[1,1′-biphenyl]-4,4′-diol]	–	suppresses LRRC54 gene expression compared to that of the parent compound 59
–	–	Cc1cc(-c2cccc(CCCO)c2)cc(C)c1O [Compound 47, 3′-(3-hydroxypropyl)-3,5-dimethyl-[1,1′-biphenyl]-4-ol]	stimulate expression of genomic PgR genes well	good stimulation of the non-genomic LRRC54
–	–	Cc1cc(-c2ccc3c(c2)CCC3=O)cc(C)c1O [Compound 6, 5-(4-hydroxy-3,5-dimethylphenyl)-2,3-dihydro-1H-inden-1-one]	–	non-genomic activity is lost
–	–	Cc1cc(-c2ccc3c(c2)CC(Br)(Br)C3O)cc(C)c1O (stereo not shown) [Compound 52, 2,2-dibromo-5-(4-hydroxy-3,5-dimethylphenyl)-2,3-dihydro-1H-inden-1-ol]	little expression of both genes	little expression of both genes
–	–	Cc1cc(-c2ccc3c(c2)CCC3)cc(C)c1O [Compound 13, 4-(2,3-dihydro-1H-inden-5-yl)-2 6-dimethylphenol]	strongly stimulate the genomic gene PgR	some non-genomic activity
–	–	Cc1cc(-c2ccc(CCBr)cc2)cc(C)c1O [Compound 46]	–	preferentially stimulate LRRC54 better than E2
–	–	OCc1cc(-c2ccc3c(c2)CCC3O)cc(CO)c1O (stereo not shown) [Compound 58, 5-(4-hydroxy-3,5-(dihydroxymethyl)phenyl)-2,3-dihydro-1H-inden-1-ol]	–	increases the expression of the non-genomic LRRC54 gene
0.004 ± 0.001	<0.001	C#CC1(O)CCc2cc(-c3cc(C)c(O)c(C)c3)ccc21 (stereo not shown) [Compound 19, 1-ethynyl-5-(4-hydroxy-3,5-dimethylphenyl)-2,3-dihydro-1H-inden-1-ol]	–	–
0.002 ± 0.001	0.002 ± 0.001	Cc1cc(-c2ccc(CO)cc2)cc(C)c1O [Compound 23]	–	–
–	–	Cc1cc(-c2ccc3c(c2)CC[C@@H]3O)cc(C)c1O [Compound 3, S-5-(4-hydroxy-3,5-dimethylphenyl)-2,3-dihydro-1H-inden-1-ol]	–	equivalent activities
–	–	Cc1cc(-c2ccc3c(c2)CC[C@H]3O)cc(C)c1O [Compound 4, R-5-(4-hydroxy-3,5-dimethylphenyl)-2,3-dihydro-1H-inden-1-ol]	–	less non-genomic gene activity
–	–	CC(O)c1ccc(-c2ccccc2)cc1 (stereo not shown) [Compound 31]	both activities are lost	both activities are lost

Compound	ERα RBA (relative binding affinity) [1]	ERβ RBA (relative binding affinity) [2]	PgR (genomic gene) mRNA expression, in words (PgR gene)	LRRC54 (non-genomic gene) mRNA expression, in words (LRRC54 gene)
Cc1cc([C@H]2CC[C@@]3(C)[C@H](CC[C@@H]3O)C2)cc(C)c1O [Compound 43, (1S,3aR,5S,7aS)-5-(4-hydroxy-3,5-dimethylphenyl)-7a-methyloctahydro-1H-inden-1-ol]	<0.001	0.001	–	–
